Test results published in ChEMBL document CHEMBL1201862, “PubChem BioAssay data set” (2004).
The source made the active and inactive calls.

Assays:
[1] = luciferase reporter signal suppression in cells – H4 neuroglioma cells, luminescence, dose response (AID 1990); type: functional, cell-based
[2] = viability loss in HEK293T cells – cell-based, cherry-picks, cytotoxicity control for HIV Vif inhibitor project, dose response (AID 652208); type: functional
[3] = target: T1, Voltage-gated N-type calcium channel alpha-1B subunit/Amyloid beta A4 precursor protein-binding family A member 1 (Homo sapiens, UniProt Q00975+Q02410); type: protein assay
[4] = alpha-synuclein stem-loop luciferase translation blockers – H4 neuroglioma cells, luminescence, confirmation (AID 1988); type: functional, cell-based
[5] = Luminescence Cell-Based Dose Response HTS to Identify Inhibitors of 5'UTR Stem-Loop Driven Prion Protein mRNA Translation in H4 Neuroglioblastoma Cells. [Related pubchem assays: 1827 (Project Summary), 1813 (Primary HTS)]; type: functional
[6] = target: T1, Voltage-gated N-type calcium channel alpha-1B subunit/Amyloid beta A4 precursor protein-binding family A member 1; type: protein assay; remark: listed apart in the source
Beta-lactamase [7] = target: T2, Beta-lactamase (Pseudomonas aeruginosa, UniProt Q79MP6); test: inhibition of IMP-1 beta-lactamase activity – biochemical, epi-absorbance, selectivity assay for VIM-2 inhibitor project, dose response (AID 1920)
Beta-lactamase [8] = target: T2, Beta-lactamase; test: […] counterscreen for selective VIM-2 inhibitors: dose response biochemical high throughput screening assay to identify inhibitors of IMP-1 metallo-beta-lactamase.
Beta-lactamase [9] = target: T3, Beta-lactamase (Salmonella choleraesuis (strain SC-B67), UniProt Q5J463); test: Epi-absorbance-based counterscreen for selective VIM-2 inhibitors: dose response biochemical high throughput screening assay to identify inhibitors of TEM-1 serine-beta-lactamase.
Beta-lactamase [10] = target: T2, Beta-lactamase
Beta-lactamase [11] = target: T3, Beta-lactamase
[12] = target: Fructose-bisphosphate aldolase (Mycobacterium tuberculosis, UniProt P9WQA3); test: Fluorescence-based biochemical high throughput dose response assay for inhibitors of the fructose-bisphosphate aldolase (FBA) of M. tuberculosis.; type: functional
Sequence of Fructose-bisphosphate aldolase (P9WQA3 whole entry): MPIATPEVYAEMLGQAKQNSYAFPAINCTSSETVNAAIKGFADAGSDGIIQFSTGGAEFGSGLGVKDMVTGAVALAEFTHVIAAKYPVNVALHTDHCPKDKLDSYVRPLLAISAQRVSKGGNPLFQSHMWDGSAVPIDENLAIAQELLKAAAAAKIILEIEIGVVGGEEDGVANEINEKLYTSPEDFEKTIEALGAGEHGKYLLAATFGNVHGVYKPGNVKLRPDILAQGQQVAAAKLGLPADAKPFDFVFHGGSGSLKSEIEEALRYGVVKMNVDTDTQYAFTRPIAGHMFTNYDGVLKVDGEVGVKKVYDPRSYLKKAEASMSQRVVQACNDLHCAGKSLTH

T2 sequence (Q79MP6 whole entry): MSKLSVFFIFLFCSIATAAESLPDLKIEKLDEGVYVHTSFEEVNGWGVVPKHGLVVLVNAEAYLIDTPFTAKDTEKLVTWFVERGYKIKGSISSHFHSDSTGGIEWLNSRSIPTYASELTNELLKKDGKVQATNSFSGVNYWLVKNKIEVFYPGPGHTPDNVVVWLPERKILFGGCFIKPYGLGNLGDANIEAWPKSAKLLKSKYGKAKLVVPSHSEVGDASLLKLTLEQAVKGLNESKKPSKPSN
T3 sequence (Q5J463 whole entry): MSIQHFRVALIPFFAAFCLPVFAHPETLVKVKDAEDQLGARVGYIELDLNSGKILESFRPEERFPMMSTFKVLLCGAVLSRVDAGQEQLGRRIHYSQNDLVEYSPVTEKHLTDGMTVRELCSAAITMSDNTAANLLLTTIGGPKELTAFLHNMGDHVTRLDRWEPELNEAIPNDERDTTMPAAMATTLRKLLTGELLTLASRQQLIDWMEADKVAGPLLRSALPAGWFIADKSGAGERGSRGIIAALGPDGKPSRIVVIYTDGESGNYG
T1 sequence (Q00975 whole entry): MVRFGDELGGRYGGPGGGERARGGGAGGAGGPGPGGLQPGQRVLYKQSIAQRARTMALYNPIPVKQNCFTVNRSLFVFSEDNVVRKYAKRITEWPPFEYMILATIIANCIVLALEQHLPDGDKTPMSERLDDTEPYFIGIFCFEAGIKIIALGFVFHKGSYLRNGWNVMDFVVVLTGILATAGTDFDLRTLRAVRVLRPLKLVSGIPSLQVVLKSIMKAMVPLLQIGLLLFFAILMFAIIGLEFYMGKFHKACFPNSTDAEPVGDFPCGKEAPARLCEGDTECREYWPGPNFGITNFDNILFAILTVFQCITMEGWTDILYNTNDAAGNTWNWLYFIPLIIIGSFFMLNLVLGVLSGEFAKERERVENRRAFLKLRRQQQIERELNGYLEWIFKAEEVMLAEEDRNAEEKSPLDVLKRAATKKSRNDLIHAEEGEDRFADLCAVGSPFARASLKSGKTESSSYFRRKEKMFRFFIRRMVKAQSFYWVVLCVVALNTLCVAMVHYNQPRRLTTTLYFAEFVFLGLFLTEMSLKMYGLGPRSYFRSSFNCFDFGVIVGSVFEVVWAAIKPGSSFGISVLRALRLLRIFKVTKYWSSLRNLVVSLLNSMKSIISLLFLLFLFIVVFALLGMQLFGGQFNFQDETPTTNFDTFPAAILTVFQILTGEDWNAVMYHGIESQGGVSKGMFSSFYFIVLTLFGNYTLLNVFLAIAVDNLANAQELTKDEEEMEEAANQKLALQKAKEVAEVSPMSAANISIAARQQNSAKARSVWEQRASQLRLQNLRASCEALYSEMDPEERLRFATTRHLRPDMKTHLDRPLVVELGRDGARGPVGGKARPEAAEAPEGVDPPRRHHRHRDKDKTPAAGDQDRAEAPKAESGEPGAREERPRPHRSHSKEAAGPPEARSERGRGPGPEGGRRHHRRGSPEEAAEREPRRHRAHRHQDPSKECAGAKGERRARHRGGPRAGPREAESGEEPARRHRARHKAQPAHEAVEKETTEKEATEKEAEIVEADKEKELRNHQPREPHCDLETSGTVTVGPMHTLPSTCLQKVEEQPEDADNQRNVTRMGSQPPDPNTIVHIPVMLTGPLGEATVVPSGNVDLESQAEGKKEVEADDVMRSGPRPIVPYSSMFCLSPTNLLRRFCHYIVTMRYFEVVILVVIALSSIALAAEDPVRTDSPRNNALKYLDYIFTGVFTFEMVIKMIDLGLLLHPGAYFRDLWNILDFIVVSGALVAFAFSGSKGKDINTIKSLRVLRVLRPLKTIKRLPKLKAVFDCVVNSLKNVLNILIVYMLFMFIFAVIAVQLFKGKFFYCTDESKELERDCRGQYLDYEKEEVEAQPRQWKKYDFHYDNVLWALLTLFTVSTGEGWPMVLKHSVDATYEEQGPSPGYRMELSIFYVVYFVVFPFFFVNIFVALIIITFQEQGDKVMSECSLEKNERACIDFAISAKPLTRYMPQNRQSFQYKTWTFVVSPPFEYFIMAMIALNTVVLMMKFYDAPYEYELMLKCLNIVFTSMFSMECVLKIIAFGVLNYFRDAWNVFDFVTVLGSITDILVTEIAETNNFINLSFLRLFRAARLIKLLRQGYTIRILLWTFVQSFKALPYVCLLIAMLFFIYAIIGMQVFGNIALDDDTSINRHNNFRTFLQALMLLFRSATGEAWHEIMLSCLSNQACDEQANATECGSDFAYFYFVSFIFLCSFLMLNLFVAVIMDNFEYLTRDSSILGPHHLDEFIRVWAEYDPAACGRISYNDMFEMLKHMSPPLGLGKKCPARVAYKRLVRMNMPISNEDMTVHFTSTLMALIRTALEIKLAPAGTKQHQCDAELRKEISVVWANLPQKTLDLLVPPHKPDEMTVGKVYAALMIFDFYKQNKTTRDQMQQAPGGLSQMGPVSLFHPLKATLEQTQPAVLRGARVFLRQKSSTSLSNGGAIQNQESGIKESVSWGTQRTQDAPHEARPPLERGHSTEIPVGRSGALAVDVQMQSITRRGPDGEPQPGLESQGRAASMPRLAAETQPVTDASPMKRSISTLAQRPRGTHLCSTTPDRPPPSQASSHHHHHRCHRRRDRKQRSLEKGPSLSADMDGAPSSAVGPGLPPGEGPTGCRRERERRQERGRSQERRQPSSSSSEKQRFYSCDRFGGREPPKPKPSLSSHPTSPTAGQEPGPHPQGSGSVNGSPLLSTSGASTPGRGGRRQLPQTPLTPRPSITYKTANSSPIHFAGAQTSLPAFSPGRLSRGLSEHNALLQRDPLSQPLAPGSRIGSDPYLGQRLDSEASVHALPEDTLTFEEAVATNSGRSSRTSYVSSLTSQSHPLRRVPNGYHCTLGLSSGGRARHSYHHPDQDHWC
T1 sequence (Q02410 whole entry): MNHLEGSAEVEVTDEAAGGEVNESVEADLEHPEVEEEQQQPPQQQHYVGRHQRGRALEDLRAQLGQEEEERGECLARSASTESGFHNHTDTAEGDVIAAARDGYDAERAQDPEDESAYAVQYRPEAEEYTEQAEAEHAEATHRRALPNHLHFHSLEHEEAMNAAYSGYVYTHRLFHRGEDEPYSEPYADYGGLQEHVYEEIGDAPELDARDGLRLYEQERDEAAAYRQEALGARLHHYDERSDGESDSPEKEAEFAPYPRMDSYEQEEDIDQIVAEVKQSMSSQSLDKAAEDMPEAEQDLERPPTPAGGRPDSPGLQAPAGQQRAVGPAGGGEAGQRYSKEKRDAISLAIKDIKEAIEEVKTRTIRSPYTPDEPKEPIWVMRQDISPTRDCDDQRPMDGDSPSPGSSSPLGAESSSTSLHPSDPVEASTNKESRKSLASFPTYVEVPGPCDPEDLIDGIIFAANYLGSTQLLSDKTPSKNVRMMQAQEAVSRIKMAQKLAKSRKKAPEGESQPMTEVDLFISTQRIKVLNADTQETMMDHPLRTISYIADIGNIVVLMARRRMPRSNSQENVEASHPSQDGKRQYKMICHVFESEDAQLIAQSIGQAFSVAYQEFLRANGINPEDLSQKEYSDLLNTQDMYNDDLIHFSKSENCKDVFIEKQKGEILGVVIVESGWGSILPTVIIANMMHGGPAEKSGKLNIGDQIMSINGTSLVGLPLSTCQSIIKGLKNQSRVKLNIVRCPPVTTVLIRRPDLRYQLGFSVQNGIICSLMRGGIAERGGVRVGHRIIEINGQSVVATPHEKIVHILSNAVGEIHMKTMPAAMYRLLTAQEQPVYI

## CCOC(=O)c1cc(-c2ccccc2)sc1NC(=O)COC(=O)c1cccc(S(N)(=O)=O)c1
[1]
  EC50: 13.4 µM (active)
[2]
  AC50: 21.3 µM (active)
[3]
  IC50: > 50 µM (inactive)
[4]
  EC50: 12.8 µM (active)
[5]
  EC50: > 120 µM (not active)
[6]
  IC50: 4.51 µM (active)

## CC(=O)c1ccc(-c2ccc(Cn3c(C)nc4cc(N)c(C)nc43)cc2)cc1
Beta-lactamase [7]
  IC50: > 59.6 µM (inactive)
Beta-lactamase [8]
  IC50: > 59.6 µM (inactive)
Beta-lactamase [9]
  IC50: > 59.6 µM (inactive)

## CCN(CC)c1ccc2cc(C=O)c(=O)oc2c1
Beta-lactamase [10]
  IC50: 57.9 µM (inactive)
Beta-lactamase [11]
  IC50: 26.7 µM (inactive)

## CCCNC(=O)c1c(N)n(-c2ccc(S(N)(=O)=O)cc2)c2nc3ccccc3nc12
[12]
  IC50: 0.673 µM (active)
